Here are results for two compounds from patent US10676459B2, “Antifungal compounds and processes for making” (MYCOVIA PHARMACEUTICALS INC., priority 2015, dated 2020).

The nature of data set [1]: Solubility and pH of saturated solution. The data set is classed as physicochemical.
The nature of data set [2]: Gravimetric Vapor Sorption (GVS) isotherm and XRPD post GVS. The class given is physicochemical. The method, then: Gravimetric Vapor Sorption (GVS) isotherms were obtained using a SMS DVS Intrinsic moisture sorption analyser, controlled by DVS Intrinsic Control software v1.0.1.2 (or v 1.0.1.3). The sample temperature was maintained at 25° C. by the instrument controls. The humidity was controlled by mixing streams of dry and wet nitrogen, with a total flow rate of 200 mL/min. The relative humidity was measured by a calibrated Rotronic probe (dynamic range of 1.0-100% RH), located near the sample. The weight change, (mass relaxation) of the sample as a function of % RH was constantly monitored by the microbalance (accuracy ±0.005 mg). Typically 5-20 mg of sample was placed in a tared mesh stainless steel basket under ambient conditions. The sample was loaded and unloaded at 40% RH and 25° C. (typical room conditions). A moisture sorption isotherm was performed as outlined below (2 scans giving 1 complete cycle). The standard isotherm was performed at 25° C. at 10% RH intervals over a 0-90% RH range. Data analysis was undertaken in Microsoft Excel using DVS Analysis Suite v6.2 (or 6.1 or 6.0).
Method Parameters for SMS DVS Intrinsic Experiments
The sample was recovered after completion of the isotherm and re-analysed by XRPD.

Data set [3] can be described thus: Human multiple-dose pharmacokinetic comparison. The note with it: for Cmax / Tmax: in vivo. The class given is in vivo. The procedure:
Human Pharmacokinetic Comparison of Compound 1 X-Hydrate and Compound 1 Anhydrous Form
Table 6 compares human multiple-dose pharmacokinetic (PK) parameters between dosing with Compound 1 X-hydrate and Compound 1 Anhydrous form. Compound 1 X-hydrate was dosed at 600 mg twice daily (bid) for three days followed by dosing at 300 mg once daily (qd) for 10 days. Compound 1 Anhydrous form was dosed at 300 mg qd for 14 days.

Data set [4] is described as follows: XRPD stability post 2 weeks storage at temperature and humidity. The data set is classed as physicochemical. The procedure: X-Ray Powder Diffraction patterns were collected on a Bruker AXS C2 GADDS diffractometer using Cu Kα radiation (40 kV, 40 mA), automated XYZ stage, laser video microscope for auto-sample positioning and a Hi Star 2-dimensional area detector. X-ray optics consists of a single Göbel multilayer mirror coupled with a pinhole collimator of 0.3 mm. A weekly performance check is carried out using a certified standard NIST 1976 Corundum (flat plate). The beam divergence, i.e. the effective size of the X-ray beam on the sample, was approximately 4 mm. A Θ-Θ continuous scan mode was employed with a sample-detector distance of 20 cm which gives an effective […] of 3.2°-29.7°. Typically the sample would be exposed to the X-ray beam for 120 seconds. The software used for data collection was GADDS for XP/2000 4.1.43 and the data were analysed and presented using Diffrac Plus EVA v13.0.0.2 or v15.0.0.0. […]
X-Ray Powder Diffraction patterns were also collected on a Bruker D8 diffractometer using Cu Kα radiation (40 kV, 40 mA), 0-20 goniometer, and divergence of V4 and receiving slits, a Ge monochromator and a Lynxeye detector. […] The software used for data collection was Diffrac Plus XRD Commander v2.6.1 and the data were analysed and presented using Diffrac Plus EVA v13.0.0.2 or v15.0.0.0. […]

Where [5] appears, read: 300 mg qd for 14 days vs X-hydrate 600 mg bid for three days then 300 mg qd for 10 days.
Where [6] appears, read: 600 mg bid loading dose for 3 days, then 300 mg qd maintenance for 10 days.

Molecules are shown by their SMILES.

Usually Cmax stands for the maximum level reached in the sampled fluid or tissue. As usually defined, the Tmax is the time from dosing to the highest level. In the case of `O[C@@](Cn1cnnn1)(c1ccc(F)cc1F)C(F)(F)c1ccc(-c2ccc(OCC(F)(F)F)cc2)cn1` [Compound 1 Anhydrous], the “pH of saturated solution” value in data set [1] (listed as Anhydrous 1) is “pH of saturated solution = 8.7”. Also, the “GVS water uptake at 90% RH” value in data set [2] (25° C., listed as Anhydrous 1) amounted to 0.14% w/w water uptake at. Further, in data set [3] (300 mg qd for 14 days), the AUC0-8 h was 35653 ngh/mL, the highest concentration (Cmax) came to 4690 ng/mL and the time to peak (Tmax) came out at 5 h. For the same compound, in data set [3] (setting [5]), the “area-under-the-curve (AUC) compared with Compound 1 X-hydrate” value is “higher” and the “maximal concentration (Cmax) compared with Compound 1 X-hydrate” value is “higher”.
In general, solubility refers to how much of the substance goes into solution per volume. Lower therefore signals a poorly soluble substance. For the compound `O[C@@](Cn1cnnn1)(c1ccc(F)cc1F)C(F)(F)c1ccc(-c2ccc(OCC(F)(F)F)cc2)cn1` [Compound 1 X-Hydrate], the “XRPD stability post 2 weeks at 25° C. & 97% RH” value in data set [4] (25° C. & 97% RH) is “No change in crystalline form”. Further, the “XRPD stability post 2 weeks at 40° C. & 75% RH” value in data set [4] (40° C. & 75% RH) is “No change in crystalline form”. In addition, in data set [1], the solubility was < 1 µg/mL. Further, the “pH of saturated solution” value in data set [1] (listed as X-hydrate 1) is recorded as “pH of saturated solution = 8.6”. Further, in data set [2] (0-90% RH, 25° C.), the GVS sample hysteresis is 90% RH. No sample hysteresis. In addition, in data set [2] (25° C., listed as X-hydrate 1), the “GVS water uptake at 90% RH” value was 0.59% w/w water uptake at. The “XRPD post GVS” value in data set [2] (after GVS experiment) is “No form change after GVS”. Besides, in data set [3] (setting [6]), the AUC0-8 h was 17600 ngh/mL, the highest level (Cmax) was 2520 ng/mL and the Tmax was 5 h.
